The results in this text go back to patent US6169116A, “Amino-tetralines, pharmaceutical compositions containing them and their pharmaceutical uses” (Novartis AG, priority 1995, dated 2001).

Assay [1] relates to ischemia-induced neuronal damage (infarct size). The experiment in a line: middle cerebral artery (MCA) occlusion model in rats. Type of assay: in vivo. The method, then: Furthermore, the agents of the invention reduce ischemia-induced neuronal damage and ensuing symptoms in the middle cerebral artery (MCA) occlusion model in rats at a dosage of 1-30 mg/kg i.p, i.v. and p.o. [cf. A. Tamura et al., J. Cereb. Blood Flow Metabol. 1, 53-60 (1981)), A. Sauter, M. Rudin, Stroke 17, 1228-1234 (1986)].
(§1) For all these indications the preferred compound is (R)-1,2,3,4-tetrahydro-8-methoxy-N,N-dimethyl-5-[4-(trifluoromethyl)phenyl]-2-naphthaleneamine, which is the compound of example 21. It has for example been determined that in the above mentioned electroshock model, this compound provides protection against maximal electroshock-induced convulsions with a threshold dose of 10 mg/kg p.o. for periods up to 8 hours post-administration.

In assay [2] the test system is veratridine-induced glutamate release in rat hippocampal slice preparations. The experiment in a line: veratridine-induced glutamate release in rat hippocampal slice preparations. Type of assay: cell-based. Particulars: for IC50: Rattus norvegicus, read-out: IC50, block of veratridine-induced glutamate release. The method, then: (§2) The agents of the invention display binding to the veratridine-sensitive sodium channel with IC50 S of from about 0.1 to about 100 μM. For the binding procedure see for example J. B. Brown, Journal of Neuroscience 6, 2064-2070 (1986). They block veratridine-induced glutamate release in rat hippocampal slice preparations at concentrations of about 0.1-1 μM.
The experiment is performed according to a modification of M. J. Leach et al. in Epilepsia 27, 490-497 (1986) and Stroke 24, 1063-1067 (1993), using exogenous glutamate.

Assay [3] concerns maximal electroshock-induced convulsions. The experiment in a line: protection against maximal electroshock-induced convulsions in mice. Type of assay: in vivo. The method, then:
The agents of the invention provide long-lasting protection against maximal electroshock-induced convulsions in mice at doses of about 1 to 100 mg/kg p.o. and about 0.32 to 32 mg/kg i.p. [cf. E. A. Swinyard, J. Am. Pharm. Assoc. Scient. Ed. 38, 201 (1949) and J. Pharmacol. Exptl. Therap. 106, 319 (1952)].
as §1

For assay [4], the target named is veratridine-sensitive sodium channel. The experiment in a line: binding to the veratridine-sensitive sodium channel. Particulars: read-out: IC50, affinity for the veratridine binding site. On the procedure:
as §2

Setting [5] is: 10 mg/kg i.p., immediately after occlusion.

`Cc1ccc(-c2nc(C)c(CN3CCN(C(c4ccccc4)c4ccccc4)CC3)[nH]2)cc1` [Lifarizine, reference compound] showed an infarct size reduction in assay [1] (setting [5]) of 25%.
Consider `Nc1nc2ccc(OC(F)(F)F)cc2s1` [Riluzole, reference compound], for which the IC50 in assay [2] is 5 µM.
For `COc1ccc(-c2ccc(C(F)(F)F)cc2)c2c1C[C@H](N(C)C)CC2` [Example 21, (R)-1,2,3,4-tetrahydro-8-methoxy-N,N-dimethyl-5-[4-(trifluoromethyl)phenyl]-2-naphthaleneamine], in assay [3] (Mus musculus, po, read-out: threshold dose for protection against maximal electroshock-induced convulsions), the minimal effective dose is 10 mg/kg. In addition, in assay [3] (p.o., threshold dose 10 mg/kg), the “period of protection against maximal electroshock-induced convulsions post-administration” value is on record as “up to 8 hours”. Moreover, the infarct size reduction was found to be 19% in assay [1] (3.2 mg/kg i.p. immediately after occlusion), 43% in assay [1] (setting [5]) and 53% in assay [1] (32 mg/kg i.p. immediately after occlusion). Further, the IC50 came out at 125 nM in assay [4] and 0.5 µM in assay [2]. For the same compound, the “potency relative to Lifarizine in the veratridine-induced glutamate release test” value in assay [2] (compared with Lifarizine) was “about equipotent to Lifarizine”.
`Nc1nnc(-c2cccc(Cl)c2Cl)c(N)n1` [Lamotrigine, reference compound]: in assay [2], the IC50 amounted to 20 µM.

One may read the IC50 as the concentration that inhibits the measured activity by half.
